Measurements: patent publication US4740504A, “Antihyperlipidemic amine boranes” (United States Borax & Chemical Corp., priority 1987, dated 1988)

Legend:
[1] = target: T1, Cholesterol 7α hydroxylase (Mus musculus, UniProt Q64505); test: Enzyme activity after in vivo dosing: cholesterol 7α hydroxylase; settings: 16 mg/kg
T1 construct: from tissue; host or cells: liver (inferred; the enzyme is liver-specific)

acetyl CoA synthetase = target: T2, acetyl CoA synthetase (Mus musculus, UniProt Q9QXG4); test: Enzymatic studies in vitro: acetyl CoA synthetase; assay type: biochemical; settings: at all concentrations tested
T2 construct: from tissue

Toxicity (LD50) = settings: in vivo
[2] = target: T3, acyl CoA cholesterol acyl transferase (Mus musculus, UniProt O88908); test: Enzyme activity after in vivo dosing: acyl CoA cholesterol acyl transferase; settings: 8 mg/kg/day
T3 construct: from tissue
T3 sequence (O88908 1-525): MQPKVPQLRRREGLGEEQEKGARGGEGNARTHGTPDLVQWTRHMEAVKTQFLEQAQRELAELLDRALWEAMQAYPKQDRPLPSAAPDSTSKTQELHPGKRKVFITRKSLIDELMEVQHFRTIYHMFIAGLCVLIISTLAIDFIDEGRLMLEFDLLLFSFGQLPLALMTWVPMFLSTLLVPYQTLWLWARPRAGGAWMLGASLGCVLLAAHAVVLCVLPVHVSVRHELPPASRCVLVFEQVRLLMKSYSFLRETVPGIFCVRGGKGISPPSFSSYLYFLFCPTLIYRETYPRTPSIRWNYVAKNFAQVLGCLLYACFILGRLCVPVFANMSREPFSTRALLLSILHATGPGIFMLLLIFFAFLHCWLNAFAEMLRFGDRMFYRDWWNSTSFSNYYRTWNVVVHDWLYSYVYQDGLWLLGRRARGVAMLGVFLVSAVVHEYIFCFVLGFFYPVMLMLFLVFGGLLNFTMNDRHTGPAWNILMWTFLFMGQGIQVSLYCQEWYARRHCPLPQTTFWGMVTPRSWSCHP

[3] = test system: Hepatic lipoprotein lipase; test: Enzymatic studies in vitro: hepatic lipoprotein lipase induced by heparin; assay type: biochemical
HMG CoA reductase [4] = test: Enzymatic studies in vitro: cholesterol synthesis (HMG CoA reductase); assay type: biochemical; settings: 200 μM
[5] = target: T3, acyl CoA cholesterol acyl transferase; test: Enzymatic studies in vitro: acyl CoA cholesterol acyl transferase; assay type: biochemical; settings: read-out: reduction of acyl CoA cholesterol acyl transferase activity
Sprague Dawley male rats = test: Hypolipidemic activity in Sprague Dawley rats, oral dosing (serum cholesterol and triglyceride); assay type: in vivo
Procedure: N-n-Octadecyl-N,N-dimethylamine borane was suspended in an aqueous 1% carboxymethylcellulose solution, homogenized, and administered to CF1 male mice (~25 g.) intraperitoneally for 16 days or Sprague Dawley male rats (~350 g.) orally by an intubation needle for 14 days. On days 9 and 14 or 16, blood was obtained by tail vein bleeding and the serum separated by centrifugation for 3 minutes. The serum cholesterol levels were determined by a modification of the Liebermann-Burchard reaction. Serum was also collected on day 14 or 16 and the triglyceride content was determined by a Fisher-Hycel Triglyceride Test Kit.

HMG CoA reductase [6] = target: T4, HMG CoA reductase (Mus musculus, UniProt Q01237); test: Enzyme activity after in vivo dosing: HMG CoA reductase; settings: maximal reduction at 4 mg/kg/day
T4 construct: from tissue
T4 sequence (Q01237 1-887): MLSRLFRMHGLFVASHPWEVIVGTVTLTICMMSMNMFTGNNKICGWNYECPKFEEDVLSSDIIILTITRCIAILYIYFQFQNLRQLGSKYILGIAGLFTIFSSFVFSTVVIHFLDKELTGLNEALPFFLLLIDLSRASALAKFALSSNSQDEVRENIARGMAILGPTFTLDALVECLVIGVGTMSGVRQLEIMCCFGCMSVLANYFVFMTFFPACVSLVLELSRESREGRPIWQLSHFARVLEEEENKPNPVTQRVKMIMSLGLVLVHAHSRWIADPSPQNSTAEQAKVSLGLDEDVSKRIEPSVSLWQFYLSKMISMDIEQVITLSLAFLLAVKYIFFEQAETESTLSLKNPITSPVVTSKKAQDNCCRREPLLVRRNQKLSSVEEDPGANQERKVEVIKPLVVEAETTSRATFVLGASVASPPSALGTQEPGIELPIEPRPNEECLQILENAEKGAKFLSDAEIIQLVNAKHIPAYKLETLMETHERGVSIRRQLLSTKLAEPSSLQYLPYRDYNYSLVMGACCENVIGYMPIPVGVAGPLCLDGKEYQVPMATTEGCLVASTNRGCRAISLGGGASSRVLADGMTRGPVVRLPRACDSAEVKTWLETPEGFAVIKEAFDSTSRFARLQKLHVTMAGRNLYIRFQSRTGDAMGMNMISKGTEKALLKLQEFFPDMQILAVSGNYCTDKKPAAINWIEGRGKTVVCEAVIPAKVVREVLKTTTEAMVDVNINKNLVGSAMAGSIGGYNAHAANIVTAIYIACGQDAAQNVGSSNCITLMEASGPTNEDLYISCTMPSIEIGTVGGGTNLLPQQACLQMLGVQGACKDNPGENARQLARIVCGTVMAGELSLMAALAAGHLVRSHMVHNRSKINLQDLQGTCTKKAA

[7] = Sprague Dawley rats, oral administration at 20 mg/kg/day
[8] = Table III, 20 mg/kg/day orally, Sprague Dawley rats

T2 sequence (Q9QXG4 whole entry): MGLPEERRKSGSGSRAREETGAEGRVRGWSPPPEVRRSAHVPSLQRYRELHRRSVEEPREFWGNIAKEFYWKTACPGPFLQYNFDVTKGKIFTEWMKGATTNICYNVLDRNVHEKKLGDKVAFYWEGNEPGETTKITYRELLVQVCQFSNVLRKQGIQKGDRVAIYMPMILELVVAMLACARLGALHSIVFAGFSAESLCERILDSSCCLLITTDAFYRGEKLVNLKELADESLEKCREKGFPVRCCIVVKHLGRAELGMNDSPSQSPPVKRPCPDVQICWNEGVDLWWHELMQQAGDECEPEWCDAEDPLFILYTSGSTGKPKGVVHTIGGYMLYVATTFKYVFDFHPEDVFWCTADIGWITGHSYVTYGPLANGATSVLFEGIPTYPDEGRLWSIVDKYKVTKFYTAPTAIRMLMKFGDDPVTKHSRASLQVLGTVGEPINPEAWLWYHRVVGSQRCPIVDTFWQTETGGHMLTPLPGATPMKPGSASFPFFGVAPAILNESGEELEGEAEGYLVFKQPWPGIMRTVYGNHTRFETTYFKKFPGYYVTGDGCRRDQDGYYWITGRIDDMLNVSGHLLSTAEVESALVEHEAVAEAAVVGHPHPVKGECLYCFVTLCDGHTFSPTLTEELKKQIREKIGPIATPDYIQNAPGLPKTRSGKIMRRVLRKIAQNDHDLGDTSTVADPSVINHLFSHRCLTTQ
T1 sequence (Q64505 whole entry): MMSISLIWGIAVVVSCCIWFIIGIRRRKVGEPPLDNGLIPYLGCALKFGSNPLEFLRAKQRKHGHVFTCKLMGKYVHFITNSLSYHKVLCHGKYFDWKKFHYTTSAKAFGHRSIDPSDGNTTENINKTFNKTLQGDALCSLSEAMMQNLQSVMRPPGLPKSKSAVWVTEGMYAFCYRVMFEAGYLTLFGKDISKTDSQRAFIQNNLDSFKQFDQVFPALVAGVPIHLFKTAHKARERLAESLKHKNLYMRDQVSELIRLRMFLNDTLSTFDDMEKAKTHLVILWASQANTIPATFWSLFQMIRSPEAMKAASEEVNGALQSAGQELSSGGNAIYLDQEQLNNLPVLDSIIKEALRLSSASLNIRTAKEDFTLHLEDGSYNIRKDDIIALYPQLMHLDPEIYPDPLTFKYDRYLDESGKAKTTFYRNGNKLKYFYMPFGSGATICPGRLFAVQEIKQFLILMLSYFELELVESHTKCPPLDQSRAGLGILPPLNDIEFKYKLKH

[BH3-][N+](C)(C)CCCCCCCCCCCCCCCCCC [I, N-n-Octadecyl-N,N-Dimethylamine Borane]
reduction of cholesterol 7α hydroxylase activity [1]: 35%
reduction of acetyl CoA synthetase activity (acetyl CoA synthetase): more than 50%
LD50 (Toxicity (LD50)): > 500 mg/kg
lowering of acyl CoA cholesterol acyl transferase activity [2]: 52%
reduction of hepatic lipoprotein lipase activity ([3]; 100 μM): 23%
reduction of hepatic lipoprotein lipase activity ([3]; 200 μM): 23%
reduction of cholesterol synthesis (HMG CoA reductase) (HMG CoA reductase [4]): 38%
inhibition at 100 µM ([5]; 100 μM): 41%
inhibition at 200 µM ([5]; 200 μM): 55%
lowering of serum triglyceride levels (Sprague Dawley male rats; [7]): 35%
reduction of serum cholesterol levels (Sprague Dawley male rats; [7]): 54%
Serum Cholesterol Day 9 (X ± SD) (Sprague Dawley male rats; [8]): 82 ± 8% of Control
Serum Cholesterol Day 14 (X ± SD) (Sprague Dawley male rats; [8]): 46 ± 5% of Control
Serum Triglyceride Day 9 (X ± SD) (Sprague Dawley male rats; [8]): 82 ± 7% of Control
Serum Triglyceride Day 14 (X ± SD) (Sprague Dawley male rats; [8]): 65 ± 6% of Control
optimum dosage (Sprague Dawley male rats; in rats): about 20 mg./kg.
reduction of HMG CoA reductase activity (HMG CoA reductase [6]): 34%
